Publication PMC3913255, “Ligand determinants of fatty acid activation of the pronociceptive ion channel TRPA1” (PeerJ, 2014)
Like-named read-outs stand apart in the source and are kept apart here.

Columns and labels:
Format in all cases: cell-based
mTRPA1 = target: T1, mTRPA1 (Mus musculus, UniProt Q8BLA8); assay: calcium fluorescence assay in HEK […] cells expressing mouse TRPA1 ([…]); details: HEK293; read-out: % of CA (300 μM) response at 100 μM
T1 construct: gene Trpa1

hTRPA1 [1] = target: T2, hTRPA1 (Homo sapiens, UniProt O75762); assay: calcium fluorescence assay and whole-cell patch clamp in HEK […] cells expressing hTRPA1
T2 construct: gene TRPA1
T2 sequence (O75762 whole entry): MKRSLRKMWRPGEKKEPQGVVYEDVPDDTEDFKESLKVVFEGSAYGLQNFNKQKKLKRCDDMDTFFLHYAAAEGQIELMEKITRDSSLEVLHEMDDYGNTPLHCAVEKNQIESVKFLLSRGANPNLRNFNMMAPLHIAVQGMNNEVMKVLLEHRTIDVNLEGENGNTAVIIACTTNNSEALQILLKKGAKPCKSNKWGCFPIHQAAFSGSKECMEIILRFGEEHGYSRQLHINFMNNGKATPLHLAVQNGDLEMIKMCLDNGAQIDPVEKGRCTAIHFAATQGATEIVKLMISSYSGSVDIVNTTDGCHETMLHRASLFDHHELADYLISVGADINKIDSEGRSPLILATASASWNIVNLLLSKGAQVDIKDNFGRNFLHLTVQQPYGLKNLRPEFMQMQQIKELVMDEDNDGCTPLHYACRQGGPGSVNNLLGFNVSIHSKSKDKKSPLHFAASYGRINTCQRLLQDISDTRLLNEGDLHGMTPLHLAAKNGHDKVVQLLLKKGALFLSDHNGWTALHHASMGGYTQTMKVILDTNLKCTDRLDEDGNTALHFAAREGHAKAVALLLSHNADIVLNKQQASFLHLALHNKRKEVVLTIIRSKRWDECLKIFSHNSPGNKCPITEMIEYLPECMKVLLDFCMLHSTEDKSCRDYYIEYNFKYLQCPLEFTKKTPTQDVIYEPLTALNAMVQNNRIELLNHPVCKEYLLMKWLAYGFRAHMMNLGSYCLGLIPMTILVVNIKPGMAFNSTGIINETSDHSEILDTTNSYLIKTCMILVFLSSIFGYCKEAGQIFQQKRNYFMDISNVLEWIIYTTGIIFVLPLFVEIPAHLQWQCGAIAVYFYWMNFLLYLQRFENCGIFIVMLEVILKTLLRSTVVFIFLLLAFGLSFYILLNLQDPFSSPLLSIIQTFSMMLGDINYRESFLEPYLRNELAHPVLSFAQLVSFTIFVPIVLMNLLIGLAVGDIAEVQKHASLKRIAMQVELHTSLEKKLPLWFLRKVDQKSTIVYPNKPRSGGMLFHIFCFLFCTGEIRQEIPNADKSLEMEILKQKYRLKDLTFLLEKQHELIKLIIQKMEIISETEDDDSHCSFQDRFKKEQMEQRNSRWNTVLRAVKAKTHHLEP

CaV3.1 = target: T3, CaV3.1 (Homo sapiens, UniProt O43497); assay: patch clamp recording of CaV3.[…] channels, […]
T3 construct: gene CACNA1G
T3 sequence (O43497 whole entry): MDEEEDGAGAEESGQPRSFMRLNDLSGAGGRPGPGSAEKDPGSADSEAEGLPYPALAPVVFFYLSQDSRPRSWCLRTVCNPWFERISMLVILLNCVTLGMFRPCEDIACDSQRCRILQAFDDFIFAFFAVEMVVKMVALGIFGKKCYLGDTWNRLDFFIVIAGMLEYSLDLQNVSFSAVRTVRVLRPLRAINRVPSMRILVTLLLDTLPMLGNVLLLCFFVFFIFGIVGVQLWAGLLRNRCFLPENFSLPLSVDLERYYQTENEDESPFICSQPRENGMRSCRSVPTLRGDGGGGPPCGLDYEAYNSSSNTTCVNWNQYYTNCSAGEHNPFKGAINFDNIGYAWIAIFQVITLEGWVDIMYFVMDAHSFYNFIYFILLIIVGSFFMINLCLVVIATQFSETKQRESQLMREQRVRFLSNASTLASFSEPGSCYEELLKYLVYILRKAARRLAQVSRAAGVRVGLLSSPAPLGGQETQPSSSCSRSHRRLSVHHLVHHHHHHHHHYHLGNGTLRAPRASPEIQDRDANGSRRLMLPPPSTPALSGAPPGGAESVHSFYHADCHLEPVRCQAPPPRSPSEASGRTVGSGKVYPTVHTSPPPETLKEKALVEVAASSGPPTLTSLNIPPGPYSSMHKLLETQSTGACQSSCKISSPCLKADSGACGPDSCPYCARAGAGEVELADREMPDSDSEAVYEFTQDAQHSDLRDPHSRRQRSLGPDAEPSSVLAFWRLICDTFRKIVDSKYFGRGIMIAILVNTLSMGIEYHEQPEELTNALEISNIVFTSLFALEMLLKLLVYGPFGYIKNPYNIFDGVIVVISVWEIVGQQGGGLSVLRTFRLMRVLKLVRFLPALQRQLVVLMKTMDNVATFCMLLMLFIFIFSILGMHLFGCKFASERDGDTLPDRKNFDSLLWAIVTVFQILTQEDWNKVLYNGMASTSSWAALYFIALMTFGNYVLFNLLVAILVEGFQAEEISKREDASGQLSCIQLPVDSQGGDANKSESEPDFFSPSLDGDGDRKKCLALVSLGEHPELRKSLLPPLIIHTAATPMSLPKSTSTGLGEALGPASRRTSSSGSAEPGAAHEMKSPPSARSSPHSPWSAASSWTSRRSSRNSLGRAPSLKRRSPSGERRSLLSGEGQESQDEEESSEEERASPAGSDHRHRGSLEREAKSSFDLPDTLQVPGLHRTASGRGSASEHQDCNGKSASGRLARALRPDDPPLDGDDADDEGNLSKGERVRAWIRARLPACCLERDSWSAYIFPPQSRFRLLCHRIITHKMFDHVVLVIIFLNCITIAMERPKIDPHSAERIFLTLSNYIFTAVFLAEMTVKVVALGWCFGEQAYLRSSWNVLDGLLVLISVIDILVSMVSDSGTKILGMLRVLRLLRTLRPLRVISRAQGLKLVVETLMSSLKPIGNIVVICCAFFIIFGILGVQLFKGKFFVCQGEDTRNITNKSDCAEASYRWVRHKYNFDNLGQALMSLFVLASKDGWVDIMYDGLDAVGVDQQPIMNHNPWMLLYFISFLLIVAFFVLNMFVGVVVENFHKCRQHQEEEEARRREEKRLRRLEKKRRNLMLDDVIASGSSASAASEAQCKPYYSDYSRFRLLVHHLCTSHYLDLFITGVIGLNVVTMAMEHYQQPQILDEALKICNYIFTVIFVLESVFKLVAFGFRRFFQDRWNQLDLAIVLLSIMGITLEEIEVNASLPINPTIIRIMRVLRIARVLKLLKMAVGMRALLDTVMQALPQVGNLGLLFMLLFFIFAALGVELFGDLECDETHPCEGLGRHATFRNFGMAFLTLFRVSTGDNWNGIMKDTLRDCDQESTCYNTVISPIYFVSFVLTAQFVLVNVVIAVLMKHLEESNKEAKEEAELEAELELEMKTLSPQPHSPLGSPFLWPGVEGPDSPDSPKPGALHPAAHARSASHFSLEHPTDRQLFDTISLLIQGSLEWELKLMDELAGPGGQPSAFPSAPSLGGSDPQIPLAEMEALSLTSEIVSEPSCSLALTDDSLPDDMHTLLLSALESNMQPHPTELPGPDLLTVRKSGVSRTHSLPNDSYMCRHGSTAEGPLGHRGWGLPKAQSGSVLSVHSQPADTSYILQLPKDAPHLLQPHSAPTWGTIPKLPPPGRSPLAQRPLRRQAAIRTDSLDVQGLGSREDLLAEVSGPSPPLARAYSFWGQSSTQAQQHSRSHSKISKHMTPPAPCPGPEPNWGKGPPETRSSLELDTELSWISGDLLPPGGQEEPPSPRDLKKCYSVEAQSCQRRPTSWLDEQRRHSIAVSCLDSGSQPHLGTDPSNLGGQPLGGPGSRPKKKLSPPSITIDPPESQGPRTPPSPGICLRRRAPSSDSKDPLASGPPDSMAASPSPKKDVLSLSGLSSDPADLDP

hTRPA1 [2] = target: T2, hTRPA1; assay: calcium fluorescence assay in HEK […] cells expressing hTRPA1 ([…]); details: HEK293; read-out: Change in RFU (% Predrug)
hTRPA1 [3] = target: T2, hTRPA1; assay: as above; details: HEK293; read-out: % increase in [Ca]i at 30 μM
hTRPA1 [4] = target: T2, hTRPA1; assay: calcium fluorescence assay and whole-cell patch clamp in HEK […] cells expressing hTRPA1; remark: listed apart in the source
hTRPA1 [5] = target: T2, hTRPA1; assay: calcium fluorescence assay in HEK […] cells expressing hTRPA1 ([…]); details: HEK293, read-out: % increase in [Ca]i at 30 μM

T1 sequence (Q8BLA8 whole entry): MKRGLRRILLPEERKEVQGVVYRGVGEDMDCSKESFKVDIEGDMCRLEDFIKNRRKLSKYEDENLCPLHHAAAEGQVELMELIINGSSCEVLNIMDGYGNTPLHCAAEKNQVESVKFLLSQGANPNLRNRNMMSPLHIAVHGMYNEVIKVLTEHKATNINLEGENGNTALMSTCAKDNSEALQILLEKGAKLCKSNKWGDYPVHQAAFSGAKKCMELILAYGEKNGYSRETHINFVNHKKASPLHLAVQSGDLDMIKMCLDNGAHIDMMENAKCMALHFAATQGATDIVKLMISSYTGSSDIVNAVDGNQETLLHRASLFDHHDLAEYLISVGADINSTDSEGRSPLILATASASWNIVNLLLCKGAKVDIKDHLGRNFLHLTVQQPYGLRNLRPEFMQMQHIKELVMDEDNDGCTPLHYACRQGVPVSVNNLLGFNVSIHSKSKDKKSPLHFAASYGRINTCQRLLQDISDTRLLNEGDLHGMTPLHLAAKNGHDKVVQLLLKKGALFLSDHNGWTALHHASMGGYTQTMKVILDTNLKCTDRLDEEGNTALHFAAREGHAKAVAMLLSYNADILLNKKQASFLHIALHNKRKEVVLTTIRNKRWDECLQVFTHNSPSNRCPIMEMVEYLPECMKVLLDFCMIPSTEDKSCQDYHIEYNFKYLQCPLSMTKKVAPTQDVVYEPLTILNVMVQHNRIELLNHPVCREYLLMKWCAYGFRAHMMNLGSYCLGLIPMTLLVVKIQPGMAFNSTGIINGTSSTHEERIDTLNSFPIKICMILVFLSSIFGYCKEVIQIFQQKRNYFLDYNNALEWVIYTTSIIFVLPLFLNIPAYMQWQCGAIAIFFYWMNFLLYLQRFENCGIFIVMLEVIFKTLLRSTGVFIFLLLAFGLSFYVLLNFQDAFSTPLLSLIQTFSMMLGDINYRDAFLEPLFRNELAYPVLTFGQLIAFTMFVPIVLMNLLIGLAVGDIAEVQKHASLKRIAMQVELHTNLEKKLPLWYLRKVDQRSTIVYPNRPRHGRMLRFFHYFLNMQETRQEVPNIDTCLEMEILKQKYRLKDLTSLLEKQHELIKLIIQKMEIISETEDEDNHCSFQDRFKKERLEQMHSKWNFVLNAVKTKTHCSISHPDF

## CCCCC/C=C\C/C=C\C/C=C\C/C=C\CCCC(=O)O [AA, arachidonic acid]
mTRPA1
  Emax at 100 µM: 81 ± 4%
hTRPA1 [1]
  EC50: 13 ± 4 µM

## CCCCC/C=C\C/C=C\C/C=C\C/C=C\CCCC(=O)O [AA, ω6-arachidonic acid]
CaV3.1
  inhibition at 10 µM: 81 ± 4%

## CCCCC/C=C\C/C=C\C/C=C\C/C=C\CCCC(=O)OC [AA-ME, Arachidonic acid methyl ester]
hTRPA1 [2]
  activation at 30 µM: 302 ± 53%

## CCCCC/C=C\C/C=C\C/C=C\C/C=C\CCCC(=O)NCCO [AEA, anandamide]
hTRPA1 [3]
  activation at 30 µM: 227 ± 42%

## O=C/C=C/c1ccccc1 [CA, Cinnamaldehyde]
hTRPA1 [4]
  EC50: 11 ± 2 µM

## CCCCC/C=C\C/C=C\C/C=C\C/C=C\CCCC(=O)N[C@@H](Cc1ccc(O)cc1)C(=O)O [NA-Tyr, N-arachidonoyl tyrosine]
hTRPA1 [5]
  activation at 30 µM: 172 ± 20%

## CCCCC/C=C\C/C=C\C/C=C\C/C=C\CCCCCC(=O)O [adrenic acid]
CaV3.1
  inhibition at 10 µM: 64 ± 8%
